Measured values from publication PMC9814590, “Precise heteroatom doping determines aqueous solubility and self-assembly behaviors for polycyclic aromatic skeletons” (Communications Chemistry, 2022).
≈ marks a conversion by molar mass, not a printed value. Read-outs that look alike come from different tables or passages of the source.

Legend:
[1] = Hansen solubility parameters (HSP) from rated solvent library, optimized in HSPiP; Ra and RED versus water; type: physicochemical; conditions: for Water2 Ra: distance to water HSP of dense condition (18.1, 17.1, 16.9); for Water1 Ra: distance to water HSP of dilute condition (15.1, 20.4, 16.5); for δD (dispersion solubility parameter) / δH (hydrogen bonding solubility parameter) / δP (polar solubility parameter) / R0 (intrinsic distance parameter): experimentally rated solvent library, HSPiP; for R0 (intrinsic distance parameter): unit assumed; for Water1 RED (Ra/R0): water HSP of dilute condition (15.1, 20.4, 16.5); for Water2 RED (Ra/R0): water HSP of dense condition (18.1, 17.1, 16.9)
Source text: To figure out why the doped N/O heteroatoms on the aromatic skeletons can both influence their hydrophilicity and aqueous solubility, we employed the Hansen solubility parameters (HSP) to interpret this phenomenon. This method developed by Charles Hansen et al.[30] has found broad use both in academia and industry for predicting the compatibility or affinity between two substances[31]–[34]. The key elements of HSP approach are three partial solubility parameters consisting of δD, δP, and δH, in which δD represents the dispersion solubility parameter, δP represents the polar solubility parameter, and δH represents the hydrogen bonding solubility parameter, respectively.
The three partial parameters define a three-dimensional coordinate for substances in a virtual solubility space (Hanse space). In principle, the closer the two coordinates of HSP are, the more likely the substances will dissolve in each other, which is consistent with the notion of “like dissolves like” rule. To better describe the degree of closeness, another solubility parameter “distance” (Ra) is introduced as follows:1 Ra2=4(δD2−δD1)^2+(δP2−δP1)^2+(δH2−δH1)^2 […]
Meanwhile, each substance has an intrinsic distance parameter R0, together with HSP as a center point that would define a solubility sphere in Hansen space. If the HSP coordinate of one substance is located inside the sphere of another substance, it indicates a high affinity between them. For solute and solvent cases, a dissolution process may happen. Otherwise, a low affinity is inferred if one substance is excluded from the sphere of another.
The total HSP data set of C1-C12 was experimentally tested and optimized from a combination of solvents library and listed in Table 1 (Supplementary Methods 1.3, Supplementary Fig. 1). […] For the unique H2O, there are three sets of HSP for different conditions. The first is the HSP of single-molecule (pure) water (15.5, 16.0, 42.3), in which the δH is more salient than δD and δP, it well explains the strong hydrogen bonding interactions between water molecules. However, its use in the prediction of solubility in water is not deemed appropriate in most cases. The second and third sets of HSP for water are those derived from solubility data and should be chosen case by case. The second set of HSP (15.1, 20.4, 16.5) was derived from experimental data set exceeding 1% soluble compounds in water, which may be appropriate for the diluted solute case (denoted as Water1). The third set of HSP (18.1, 17.1, 16.9) was derived from experimental data set of complete miscible compounds with water, which may be appropriate for the dense solute case (denoted as Water2).
1.3 Determination of solubility-related parameters […]
(2) Determination of Hansen solubility parameters (HSP)3
A collection of solvents was used to estimate the HSPs values of C2–C12, which includes dichloromethane, chloroform, toluene, diethyl ether, hexane, dioxane, pyridine, tetrahydrofuran, dimethyl sulfoxide, N, N-dimethyl formamide, acetone, acetonitrile, methanol and ethanol. If the specific solvent (0.5 mL) can dissolve at least 1.0 mg of certain solute would be rated as good solvent, otherwise as bad solvent. For C1, it’s expected that this molecule can only dissolve in nonpolar solvents (recrystallized from CCl4 according to literature report). We […]
methanol, ethanol and water would be bad solvents. These rated solvent s datasets for C1–C12 were imported to HSPiP software that developed by Dr. Hansen, Abbott and Hiroshi to optimize and obtain three partial HSPs values.

Water-contact angle test = type: physicochemical
Source text: (§1) With the 12 combinatorial molecules in hand, we initially examined their hydrophilicity and aqueous solubility. The water-contact angle test gave a clear hydrophilic assessment for these molecules (Table 1 and Supplementary Table 1). The conventional shake-flask method was employed to obtain the thermodynamic aqueous solubility data[29]. […]. In pursuit of both improving the hydrophilicity and aqueous solubility, we planned to introduce dual N/O heteroatoms to C1 skeleton as listed in group 2. […]. The turning point comes to C9 that doping two N atoms on the phenanthrene subcomponent besides the oxazole part. A water contact angle of 0° indicates the high hydrophilicity of C9. […].
Supplementary Table 1. Collected water contact angles for C2 – C12 […]

[2] = Shake-flask thermodynamic aqueous solubility (1H NMR quantification); type: physicochemical; conditions: for solubility at 24 h: water, thermodynamic from solid, D2O, room temperature
Source text: as §1
1.3 Determination of solubility-related parameters
(1) Measurement of aqueous solubility
We applied the classic shake-flask method to determine the solubility data of C2–C12 in water. Typically, an excess amount of C2 was added to 1.0 mL of D2O, and the mixture was stirred at room temperature for 24 h. After that, the phase separation of saturated solution was finished through centrifugation. 1H NMR technology was applied to quantitatively analysis the concentration of solute using tetrahydrofuran as internal standard. Actually, we didn’t synthesize C1 to obtain its solubility data from experimental method because it’s obvious that this compound would be insoluble in water from reasonable judgement. Alternatively, due to its high hydrophobicity and measured water solubility data from C2–C8 counterpart, we can estimate this value must be at least lower than 0.1 mg / mL as well. […]

[3] = Apparent association constants by 1H NMR shift analysis (dimeric model); type: physicochemical; conditions: for Ka (CHCl3), apparent association constant: CHCl3, dimeric model; for Ka (MeOH-H2O), apparent association constant: MeOH-H2O (legend: H2O), dimeric model
Source text: As is known, high concentration as a driving force to promote the molecular aggregation in solution is ubiquitous and well recognized[37],[38]. To compare the high concentration induced aggregation phenomenon with our case, we measured their apparent association constants (Ka) by ^1H NMR shift analysis after simplifying the aggregates to a dimeric model[39] (Supplementary Figs. 17–28). As listed in Fig. 3b, C10-C12 in chloroform display relatively weak association ability induced by high concentration factor. […] Meanwhile, the ^13C NMR spectra gave more informative details about C10-C12 in different existing states (Fig. 3c, Supplementary Figs. 13 and 14). […] In comparison, these signals became broadened and moved to upfield with a maximal 3.19 ppm shift in D2O conditions, which was almost in consistent with the solid-state ^13C magic-angle spinning (MAS) NMR spectrum despite its much broader signature. Moreover, the luminescent emissions of C10-C12 in various solvent ratios and solid-state were also screened (Fig. 3d, Supplementary Figs. 33 and 34). […] Unexpectedly, the maximal emissions in water are close to the solid state of C10-C12 (e.g., 472 nm in water versus 486 nm in solid for C10), indicative of a homologous excited-state energy transfer pathway.

[4] = set-up: method as in hazardous substances data bank; conditions: 25 °C; ref hazardous substances data bank; cited from earlier work
[5] = AFM measurement of nanoparticles in wet conditions; type: physicochemical; conditions: aqueous solution 1.5 mM on mica
Method: To further confirm the aggregation-induced nanoparticles formed in water, we carried out atomic force microscope (AFM) measurement of C10-C12 in wet conditions[35] (Fig. 2c and Supplementary Figs. 29–31). Typically, a drop of aqueous solution of C11 (1.5 mM) was cast on a freshly cleaved mica surface and subjected to test. […] 2D and 3D height profiles gave a particle size around 8 nm.

[6] = Kinetic radii from DOSY NMR (Stokes-Einstein equation); type: physicochemical

Row | Compound | Water2 Ra [1] | Water1 Ra [1] | δD (dispersion solubility parameter) [1] | δH (hydrogen bonding solubility parameter) [1] | δP (polar solubility parameter) [1] | R0 (intrinsic distance parameter) [1] | Water1 RED (Ra/R0) [1] | Water contact angle (Water-contact angle test; C2-C12) | solubility at 24 h [2] | Ka (CHCl3), apparent association constant [3] | Ka (MeOH-H2O), apparent association constant [3] | Water contact angle (Water-contact angle test; C1 not synthesized, deduced and estimated by comparison with C2) | Aqueous solubility [2] | Aqueous solubility [4] | Water2 RED (Ra/R0) [1] | average diameter of nanoparticles (AFM statistical analysis) [5] | kinetic radius, DOSY ([6]; D2O) | kinetic radius, DOSY ([6]; MeOD-d4)
1 | c1ccc(-c2nc3c4cccnc4c4ncccc4c3o2)nc1 [C12] | 10.9 MPa^0.5 | 16.4 MPa^0.5 | 19.4 (MPa)^0.5 | 17.2 (MPa)^0.5 | 6.5 (MPa)^0.5 | 12.3 MPa^0.5 | 1.3 | 0 ° | 150000 µg/mL (≈ 503 mM) | 13(1) M^-1 | 918(77) M^-1 | – | – | – | – | – | – | –
2 | C1=C(c2ccccc2)Cc2c1c1ccccc1c1ccccc21 [C1, 2-phenyl-1H-cyclophen[l]phenanthrene, reference compound] | 20.8 MPa^0.5 | 23.8 MPa^0.5 | – | – | – | – | – | – | – | – | – | >140 ° | – | – | – | – | – | –
3 | c1ccc(-c2nc3c4cccnc4c4ncccc4c3o2)cc1 [C9] | 5.1 MPa^0.5 | 10.8 MPa^0.5 | 18.6 (MPa)^0.5 | 15.5 (MPa)^0.5 | 12.3 (MPa)^0.5 | 10 MPa^0.5 | 1.1 | 0 ° | 900 µg/mL (≈ 3.03 mM) | – | – | – | slightly soluble | – | – | – | – | –
4 | c1cnccn1 [pyrazine] | – | – | – | – | – | – | – | – | – | – | – | – | – | freely soluble in water | – | – | – | –
5 | c1ccc(-c2nc3c4ccccc4c4ccccc4c3o2)cc1 [C7] | 13.9 MPa^0.5 | 18.2 MPa^0.5 | 19.5 (MPa)^0.5 | 7.5 (MPa)^0.5 | 7.2 (MPa)^0.5 | 6.6 MPa^0.5 | 2.8 | 135.2 ° | < 100 µg/mL | – | – | – | barely soluble in water | – | – | – | – | –
6 | c1ccc(-c2nc3c4ccccc4c4ccccc4c3[nH]2)cc1 [C2] | 9.9 MPa^0.5 | 13.3 MPa^0.5 | 18.5 (MPa)^0.5 | 8.1 (MPa)^0.5 | 12.6 (MPa)^0.5 | 4.5 MPa^0.5 | – | 140.6 ° | < 100 µg/mL | – | – | – | – | – | – | – | – | –
7 | c1cncc(-c2nc3c4cccnc4c4ncccc4c3[nH]2)c1 [C5] | 3.7 MPa^0.5 | 5.3 MPa^0.5 | 16.4 (MPa)^0.5 | 16.5 (MPa)^0.5 | 15.8 (MPa)^0.5 | 7 MPa^0.5 | – | 0 ° | < 100 µg/mL | – | – | – | – | – | – | – | – | –
8 | c1cnc2c(c1)c1nc(-c3ccncc3)oc1c1cccnc12 [C10] | 10.8 MPa^0.5 | 15 MPa^0.5 | 17.7 (MPa)^0.5 | 15.8 (MPa)^0.5 | 6.3 (MPa)^0.5 | 10.7 MPa^0.5 | 1.4 | 0 ° | 40000 µg/mL (≈ 134 mM) | 8(2) M^-1 | 772(47) M^-1 | – | – | – | – | – | – | –
9 | c1ccc(-c2nc3c4cccnc4c4ncccc4c3[nH]2)cc1 [C3] | 10.5 MPa^0.5 | 14.1 MPa^0.5 | 17.9 (MPa)^0.5 | 10.1 (MPa)^0.5 | 9.1 (MPa)^0.5 | 5.4 MPa^0.5 | – | 0 ° | < 100 µg/mL | – | – | – | – | – | 1.9 | – | – | –
10 | c1ccc(-c2nc3c4ccccc4c4ccccc4c3o2)nc1 [C8] | 13.8 MPa^0.5 | 18.1 MPa^0.5 | 19.4 (MPa)^0.5 | 7.8 (MPa)^0.5 | 7.0 (MPa)^0.5 | 8.8 MPa^0.5 | 2.1 | 128.6 ° | < 100 µg/mL | – | – | – | barely soluble in water | – | 1.6 | – | – | –
11 | c1cncc(-c2nc3c4cccnc4c4ncccc4c3o2)c1 [C11] | 10.2 MPa^0.5 | 14.9 MPa^0.5 | 18.3 (MPa)^0.5 | 15.9 (MPa)^0.5 | 7.0 (MPa)^0.5 | 11 MPa^0.5 | 1.4 | 0 ° | 13000 µg/mL (≈ 43.6 mM) | 6(1) M^-1 | 850(50) M^-1 | – | – | – | – | 8.32 nm | 3.98 nm | 0.65 nm
12 | c1cnc2c(c1)c1nc(-c3ccncc3)[nH]c1c1cccnc12 [C4] | 3.8 MPa^0.5 | 5.5 MPa^0.5 | 16.4 (MPa)^0.5 | 16.1 (MPa)^0.5 | 15.6 (MPa)^0.5 | 7.5 MPa^0.5 | – | 0 ° | < 100 µg/mL | – | – | – | – | – | – | – | – | –
13 | c1ccc(-c2nc3c4cccnc4c4ncccc4c3[nH]2)nc1 [C6] | 5.9 MPa^0.5 | 7.9 MPa^0.5 | 16.1 (MPa)^0.5 | 16.8 (MPa)^0.5 | 12.8 (MPa)^0.5 | 7.9 MPa^0.5 | – | 0 ° | < 100 µg/mL | – | – | – | – | – | – | – | – | –
